Data on one substance can be found in patent US20250186379A1, “METHODS AND AGENTS FOR DECREASING INSULIN RESISTANCE” (Whitehead Institute for Biomedical Research, priority 2021, published 2025).

For assay [1], the system named is HepG2 cells. Nature of the assay: Stable isotope tracing for lipogenesis in HepG2 cells. The class given is cell-based, human. The procedure:
To wash out insulin, cells were washed with EMEM (ATCC 30-2003) seven times, including: three quick washes, three 5-minute washes and a long 20 minute-wash in EMEM at 37° C. Cells were then cultured in EMEM supplemented with 1 mM Sodium acetate-^13C2(Sigma Aldrich, 282014) and with either 0 nM insulin or 1 nM insulin for 36 hours. Media was replenished after 24 hours. Cells were then processed for metabolite isolation (see below).
Metabolite isolation from HepG2 cells: cells were washed in ice-cold PBS (Life Technologies, AM9625), 500 μl of cold 80% MeOH (shared by the Metabolite Profiling Core Facility) was added per well of a 6-well plate and the plate was placed at −80° C. for at least 15 minutes. Following the −80 incubation, the plate was scraped on dry ice and the solution was transferred to a 1.5 ml tube and then vortexed for 5 minutes. To remove cellular debris, the samples were centrifuged at maximum speed for 10 minutes at 4° C. and the supernatant was transferred to a new 1.5 mL tube on dry ice. To remove solvents, the samples were lyophilized using Refrigerated CentriVap Benchtop Vacuum Concentrator connected to a CentriVap-105 Cold Trap (Labconco). Metabolite pellets were re-suspended in LC-MS grade water (ThermoFisher) and vortexed for 10 minutes at 4° C. Samples were centrifuged at 16,000 g for 10 minutes at 4° C. and supernatant was moved into LC-MS vials. […]

The subject of assay [2] is HepG2 cells. Nature of the assay: Glucose production in HepG2 cells. The class given is cell-based, human. The procedure: Insulin sensitive and resistant cells were cultured in EMEM for 30 minutes and then cells were treated with 0, 0.1, 1 and 10 nM insulin in glucose production media, containing DMEM (Thermo Fisher Scientific, A1443001), 15 mM HEPES (Gibco, 15630-080), 1 mM pyruvate (Sigma Aldrich, P5280), 20 mM lactate (Sigma Aldrich, L7022-5G) for 4-5 hours. Media was removed and glucose production was measured using Amplex™ Red Glucose/Glucose oxidase assay kit (Thermo Fisher Scientific, A22189) according to the manufacturer's specifications.
To wash out insulin, cells were washed with EMEM (ATCC 30-2003) seven times, including: three quick washes, three 5-minute washes and a long 20 minute-wash in EMEM at 37° C. Cells were washed with glucose-free RPMI (Gibco, 11879-020) then cultured in glucose-free RPMI for 3 hours. […] Cells were then processed for metabolite isolation (see below).
Metabolite isolation from HepG2 cells: cells were washed in ice-cold PBS (Life Technologies, AM9625), 500 μl of cold 80% MeOH (shared by the Metabolite Profiling Core Facility) was added per well of a 6-well plate and the plate was placed at −80° C. for at least 15 minutes. Following the −80 incubation, the plate was scraped on dry ice and the solution was transferred to a 1.5 ml tube and then vortexed for 5 minutes. […]

Setting [3] is: cells exposed to pathologic levels (3 nM) of insulin for two days.

“insulin: insulin (Sigma Aldrich, I9278-5ML) used for acute stimulation and chronic physiological or pathological exposure”: in assay [1] (setting [3]), the “lipogenesis after insulin stimulation” value is reported as “unchanged”. For the same substance, the lipogenesis entry in assay [1] (insulin-sensitive HepG2 cells, 1 nM insulin 36 hours) is recorded as “increased lipogenesis”. Further, the “glucose production after insulin stimulation” value in assay [2] (setting [3]) is “unchanged”. Further, the glucose production result in assay [2] (insulin-sensitive HepG2 cells, acute insulin stimulation (FIGS. 22G-22H)) is “decreased glucose production”.
